{"source": "patent US20120122991A1", "about": "“METHOD FOR TREATING CANCER BY INCREASING AMP-ACTIVATED KINASE ACTIVITY” (Dana-Farber Cancer Institute, Inc., priority 2003, published 2012)", "test_system": "mTOR signaling", "assay": "mTOR signaling (S6K1, 4E-BP1 phosphorylation) in transfected HeLa cells", "type": "cell-based, human", "conditions": "HeLa cells with wild-type LKB1, 2 mM AICAR for 2 h", "procedure": "FIG. 6A: Subconfluent cycling littermate-matched primary MEFs of the indicated genotype were left untreated (NT) or were treated with 2 mM AICAR for 2 h. Total cell extracts were immunoblotted for phospho-Thr172 AMPK (P-AMPK), phospho Ser79 ACC (P-ACC), phospho-Thr389 S6K1 (P-S6K1), phospho-Ser9 GSK-3b (P-GSK-3), and phospho-Ser235/236 S6 ribosomal protein (P-S6). FIG. 6B: An immortalized LKB1−/− MEF cell line was reconstituted with vector (v), wild-type (wt) or kinase-dead (kd) human LKB1-expressing retroviruses. Cells were treated as in FIG. 6A. eIF4E was used as a loading control. *represents a cross-reactive band with the anti-LKB1 antisera as characterized previously (Shaw et al. (2004) Proc. Natl. Acad. Sci. USA 101, 3329-3335). FIG. 6C: Endogenous 5′ cap complexes were isolated from LKB1 primary MEFs as in A. 10% of the total cell lysate is shown in the left panels; cap complexes purified on 7-methyl sepharose are shown in right panels. Each were immunoblotted with total 4E-BP1 and eIF4E antibodies. eIF4E is shown as a loading control. FIG. 6D: Hela cells (which are LKB1-deficient) were transiently transfected with vector, FLAG-tagged wild-type, or kinase-dead LKB1 along with an HA-tagged S6K1 or an HA-tagged 4E-BP1 construct, then treated where indicated with 2 mM AICAR for 2 h. […]"}
{"smiles": "NC(=O)c1ncn([C@@H]2O[C@H](CO)[C@@H](O)[C@H]2O)c1N", "note": "[AICAR, 5-aminoimidazole-4-carboxamide 1-β-D-ribofuranoside]", "values": [{"measurement": "S6K1 and 4E-BP1 phosphorylation", "result": "inhibition"}]}
